The values that follow are results of earlier work, collected in patent US20110040266A1, “ANTI-INSOMNIA COMPOSITIONS AND METHODS” (priority 2007, published 2011).

For the data set the following is noted: tablet form; administered from 5 hours to 1 hour before waking.

For `Cc1ccc(-c2nc3ccc(C)cn3c2CC(=O)N(C)C)cc1` [zolpidem, N,N,6-trimethyl-2-p-tolyl-imidazo[1,2-a]pyridine-3-acetamide], the “residual effects of night-time dosing” value was “results in residual drowsiness and sleepiness”.
